Results: article PMC4503722, “Novel Phenotypic Outcomes Identified for a Public Collection of Approved Drugs from a Publicly Accessible Panel of Assays” (PLoS ONE, 2015)
Read-outs that look alike come from different tables or passages of the source.

How the values were obtained:
STC-1 cell line = format: cell-based, mouse; settings: for mSTC-1 GLP1 Secretion IC50/EC50: assay number 13
[1] = system: endothelial tube formation in co-cultures of ECFCs and ADSCs treated with VEGF; assay: cells; format: cell-based, human
[2] = system: ECFC/ADSC co-culture cell nuclei number
NCI-H716 cells = assay: cells; format: cell-based, Human; settings: for hNCI-H716 GLP1 Secretion IC50/EC50: assay number 12
INS-1E cells = assay: cells; format: cell-based, rat; settings: assay number 8; 5 mM glucose;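 further: secreted insulin quantified by homogeneous immunoassay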
RKO = assay: cells; format: cell-based; settings: for Basal_Viability ATP RKO IC50/EC50: assay number 29
SW480 = assay: cells; format: cell-based; settings: for Basal_Viability ATP SW480 IC50/EC50: assay number 24
HT-29 = assay: cells; format: cell-based; settings: for Basal_Viability ATP HT-29 IC50/EC50: assay number 28
SNU-C1 = assay: cells; format: cell-based; settings: for Basal_Viability ATP SNU-C1 IC50/EC50: assay number 30
Colo320 = assay: cells; format: cell-based; settings: for Basal_Viability ATP Colo 320 IC50/EC50: assay number 27
[3] = system: HCT116 cells treated with a GSK3β inhibitor; assay: cells; format: cell-based; settings: for GSK3b inh pretreated_Viability ATP HCT116 IC50/EC50: assay number 26, GSK3b inhibitor pretreated
DLD-1 = assay: cells; format: cell-based; settings: for Basal_Viability ATP DLD-1 IC50/EC50: assay number 23
HCT116 = assay: cells; format: cell-based; settings: for Basal_Viability ATP HCT116 IC50/EC50: assay number 25
HeLa cells = assay: cells; format: cell-based; settings: for Hela CellCycMod PI 2N IC50/EC50: assay number 14; for Hela CellCycMod PI S Phase IC50/EC50: assay number 15; for Hela CellCycMod PI 4N IC50/EC50: assay number 16; for Hela CellCycMod PI MI IC50/EC50: assay number 17; for Hela CellCycMod PI Cell Number IC50/EC50: assay number 18

Cc1c(N)cccc1C(F)(F)F [NCGC00253636-01]
mSTC-1 GLP1 Secretion IC50/EC50 (STC-1 cell line): > 40 µM
VEGF_ADSC\ECFC Angio CD31 TubeArea IC50/EC50 [1]: > 10 µM
VEGF_ADSC\ECFC Angio Hoechst NucArea IC50/EC50 [2]: > 10 µM
hNCI-H716 GLP1 Secretion IC50/EC50 (NCI-H716 cells): > 40 µM
5mMGluc_INS1E SecretionMod IC50/EC50 (INS-1E cells): > 33.33 µM

COCC(=O)O[C@]1(CCN(C)CCCc2nc3ccccc3[nH]2)CCc2cc(F)ccc2[C@@H]1C(C)C [NCGC00161420-06]
Basal_Viability ATP RKO IC50/EC50 (RKO): 6.7187 µM
Basal_Viability ATP SW480 IC50/EC50 (SW480): 4.5426 µM
Basal_Viability ATP HT-29 IC50/EC50 (HT-29): 3.0782 µM
mSTC-1 GLP1 Secretion IC50/EC50 (STC-1 cell line): 8.237 µM
VEGF_ADSC\ECFC Angio CD31 TubeArea IC50/EC50 [1]: > 10 µM
Basal_Viability ATP SNU-C1 IC50/EC50 (SNU-C1): 5.4372 µM
Basal_Viability ATP Colo 320 IC50/EC50 (Colo320): 10.5076 µM
GSK3b inh pretreated_Viability ATP HCT116 IC50/EC50 [3]: 5.3311 µM
VEGF_ADSC\ECFC Angio Hoechst NucArea IC50/EC50 [2]: > 10 µM
Basal_Viability ATP DLD-1 IC50/EC50 (DLD-1): 7.2629 µM
Basal_Viability ATP HCT116 IC50/EC50 (HCT116; basal): 12.3743 µM
hNCI-H716 GLP1 Secretion IC50/EC50 (NCI-H716 cells): > 40 µM

Fc1cc(Br)ccc1CBr [NCGC00253679-01]
mSTC-1 GLP1 Secretion IC50/EC50 (STC-1 cell line): > 40 µM
hNCI-H716 GLP1 Secretion IC50/EC50 (NCI-H716 cells): > 40 µM
5mMGluc_INS1E SecretionMod IC50/EC50 (INS-1E cells): > 33.33 µM

OCCN1CCN(CC/C=C2/c3ccccc3Sc3ccc(C(F)(F)F)cc32)CC1 [NCGC00162179-08]
IC50/EC50, Basal_Viability ATP RKO (assay number 29) (RKO; basal): 0.3178 µM
IC50/EC50, Basal_Viability ATP SW480 (assay number 24) (SW480; basal): 3.928 µM
IC50/EC50, Basal_Viability ATP HT-29 (assay number 28) (HT-29; basal): 1.808 µM
IC50/EC50, mSTC-1 GLP1 Secretion (assay number 13) (STC-1 cell line; concentration response): > 40 µM
IC50/EC50, Basal_Viability ATP SNU-C1 (assay number 30) (SNU-C1; basal): 1.035 µM
IC50/EC50, Basal_Viability ATP Colo 320 (assay number 27) (Colo320; basal): 2.3138 µM
IC50/EC50, GSK3b inh pretreated_Viability ATP HCT116 (assay number 26) ([3]; GSK3b inh pretreated): 2.894 µM
IC50/EC50, Basal_Viability ATP DLD-1 (assay number 23) (DLD-1; basal): 1.467 µM
IC50/EC50, Basal_Viability ATP HCT116 (assay number 25) (HCT116; basal): 4.577 µM
IC50/EC50, hNCI-H716 GLP1 Secretion (assay number 12) (NCI-H716 cells; concentration response): 32.1555 µM

C/C(=C(\CCOC(=O)C(C)C)SS/C(CCOC(=O)C(C)C)=C(/C)N(C=O)Cc1cnc(C)nc1N)N(C=O)Cc1cnc(C)nc1N [NCGC00167456-02]
mSTC-1 GLP1 Secretion IC50/EC50 (STC-1 cell line): > 40 µM
hNCI-H716 GLP1 Secretion IC50/EC50 (NCI-H716 cells): 2.3879 µM
5mMGluc_INS1E SecretionMod IC50/EC50 (INS-1E cells): > 33.33 µM

Cc1ccc(O)cc1 [NCGC00091519-09]
mSTC-1 GLP1 Secretion IC50/EC50 (STC-1 cell line): > 40 µM
VEGF_ADSC\ECFC Angio CD31 TubeArea IC50/EC50 [1]: > 10 µM
VEGF_ADSC\ECFC Angio Hoechst NucArea IC50/EC50 [2]: > 10 µM
hNCI-H716 GLP1 Secretion IC50/EC50 (NCI-H716 cells): > 40 µM
5mMGluc_INS1E SecretionMod IC50/EC50 (INS-1E cells): > 33.33 µM

CN1CCN(CCCN2c3ccccc3Sc3ccc(C(F)(F)F)cc32)CC1.Cl.Cl [NCGC00186653-01]
IC50/EC50, Basal_Viability ATP RKO (assay number 29) (RKO): 0.5653 µM
IC50/EC50, Basal_Viability ATP SW480 (assay number 24) (SW480): 2.723 µM
IC50/EC50, Basal_Viability ATP HT-29 (assay number 28) (HT-29): 2.8136 µM
IC50/EC50, mSTC-1 GLP1 Secretion (assay number 13) (STC-1 cell line): > 40 µM
IC50/EC50, VEGF_ADSC\ECFC Angio CD31 TubeArea (assay number 2) [1]: > 10 µM
IC50/EC50, Basal_Viability ATP SNU-C1 (assay number 30) (SNU-C1): 2.6302 µM
IC50/EC50, Basal_Viability ATP Colo 320 (assay number 27) (Colo320): 2.3611 µM
IC50/EC50, GSK3b inh pretreated_Viability ATP HCT116 (assay number 26) [3]: 3.234 µM
IC50/EC50, VEGF_ADSC\ECFC Angio Hoechst NucArea (assay number 3) [2]: > 10 µM
IC50/EC50, Basal_Viability ATP DLD-1 (assay number 23) (DLD-1): 7.3544 µM
IC50/EC50, Basal_Viability ATP HCT116 (assay number 25) (HCT116): 7.225 µM
IC50/EC50, hNCI-H716 GLP1 Secretion (assay number 12) (NCI-H716 cells): > 40 µM

CCN(CC)CCOc1ccc(C(O)(Cc2ccc(Cl)cc2)c2ccc(C)cc2)cc1 (centres unmarked) [NCGC00165907-03]
Basal_Viability ATP RKO IC50/EC50 (RKO; basal): 0.2987 µM
Basal_Viability ATP SW480 IC50/EC50 (SW480; basal): 3.7592 µM
Basal_Viability ATP HT-29 IC50/EC50 (HT-29; basal): 3.1665 µM
Hela CellCycMod PI 2N IC50/EC50 (HeLa cells): > 10 µM
Hela CellCycMod PI S Phase IC50/EC50 (HeLa cells): > 10 µM
Hela CellCycMod PI 4N IC50/EC50 (HeLa cells): > 10 µM
Hela CellCycMod PI MI IC50/EC50 (HeLa cells): > 10 µM
Hela CellCycMod PI Cell Number IC50/EC50 (HeLa cells): > 10 µM
mSTC-1 GLP1 Secretion IC50/EC50 (STC-1 cell line): > 40 µM
VEGF_ADSC\ECFC Angio CD31 TubeArea IC50/EC50 [1]: 3.2104 µM
Basal_Viability ATP SNU-C1 IC50/EC50 (SNU-C1; basal): 2.4577 µM
Basal_Viability ATP Colo 320 IC50/EC50 (Colo320; basal): 8.9928 µM
GSK3b inh pretreated_Viability ATP HCT116 IC50/EC50 [3]: 3.7372 µM
VEGF_ADSC\ECFC Angio Hoechst NucArea IC50/EC50 [2]: 6.977 µM
Basal_Viability ATP DLD-1 IC50/EC50 (DLD-1; basal): > 20 µM
Basal_Viability ATP HCT116 IC50/EC50 (HCT116; basal): > 20 µM
hNCI-H716 GLP1 Secretion IC50/EC50 (NCI-H716 cells): 36.1068 µM

COC(=O)C(Cl)C(=O)OC [NCGC00249607-02]
mSTC-1 GLP1 Secretion IC50/EC50 (STC-1 cell line): 8.3651 µM
VEGF_ADSC\ECFC Angio CD31 TubeArea IC50/EC50 [1]: > 10 µM
VEGF_ADSC\ECFC Angio Hoechst NucArea IC50/EC50 [2]: > 10 µM
hNCI-H716 GLP1 Secretion IC50/EC50 (NCI-H716 cells): > 40 µM
5mMGluc_INS1E SecretionMod IC50/EC50 (INS-1E cells): > 33.33 µM

NC(=O)C1(N2CCCCC2)CCN(CCCN2c3ccccc3CCc3ccc(Cl)cc32)CC1 [NCGC00253595-01]
mSTC-1 GLP1 Secretion IC50/EC50 (STC-1 cell line): > 40 µM
VEGF_ADSC\ECFC Angio CD31 TubeArea IC50/EC50 [1]: 3.4001 µM
VEGF_ADSC\ECFC Angio Hoechst NucArea IC50/EC50 [2]: > 10 µM
hNCI-H716 GLP1 Secretion IC50/EC50 (NCI-H716 cells): 18.348 µM
5mMGluc_INS1E SecretionMod IC50/EC50 (INS-1E cells): 10.0823 µM

Cl.Oc1ccc([C@H]2CNCc3c2ccc(O)c3O)cc1O [NCGC00183049-01]
Basal_Viability ATP RKO IC50/EC50 (RKO): 0.03316 µM
Basal_Viability ATP SW480 IC50/EC50 (SW480): > 20 µM
Basal_Viability ATP HT-29 IC50/EC50 (HT-29): > 20 µM
Hela CellCycMod PI 2N IC50/EC50 (HeLa cells): > 10 µM
Hela CellCycMod PI S Phase IC50/EC50 (HeLa cells): > 10 µM
Hela CellCycMod PI 4N IC50/EC50 (HeLa cells): > 10 µM
Hela CellCycMod PI MI IC50/EC50 (HeLa cells): > 10 µM
Hela CellCycMod PI Cell Number IC50/EC50 (HeLa cells): > 10 µM
mSTC-1 GLP1 Secretion IC50/EC50 (STC-1 cell line): > 20 µM
Basal_Viability ATP SNU-C1 IC50/EC50 (SNU-C1): > 20 µM
Basal_Viability ATP Colo 320 IC50/EC50 (Colo320): 0.4662 µM
GSK3b inh pretreated_Viability ATP HCT116 IC50/EC50 [3]: 0.1876 µM
Basal_Viability ATP DLD-1 IC50/EC50 (DLD-1): > 20 µM
Basal_Viability ATP HCT116 IC50/EC50 (HCT116; basal): > 20 µM
hNCI-H716 GLP1 Secretion IC50/EC50 (NCI-H716 cells): 5.9462 µM
